Test results reported in article PMC11990158, “Synthetic Epoxyeicosatrienoic Acid Mimics Protect Mesangial Cells from Sorafenib-Induced Cell Death” (Molecules, 2025).

Target: T1, human soluble epoxide hydrolase (sEH) (Homo sapiens, UniProt P34913)
T1 sequence (P34913 1-555): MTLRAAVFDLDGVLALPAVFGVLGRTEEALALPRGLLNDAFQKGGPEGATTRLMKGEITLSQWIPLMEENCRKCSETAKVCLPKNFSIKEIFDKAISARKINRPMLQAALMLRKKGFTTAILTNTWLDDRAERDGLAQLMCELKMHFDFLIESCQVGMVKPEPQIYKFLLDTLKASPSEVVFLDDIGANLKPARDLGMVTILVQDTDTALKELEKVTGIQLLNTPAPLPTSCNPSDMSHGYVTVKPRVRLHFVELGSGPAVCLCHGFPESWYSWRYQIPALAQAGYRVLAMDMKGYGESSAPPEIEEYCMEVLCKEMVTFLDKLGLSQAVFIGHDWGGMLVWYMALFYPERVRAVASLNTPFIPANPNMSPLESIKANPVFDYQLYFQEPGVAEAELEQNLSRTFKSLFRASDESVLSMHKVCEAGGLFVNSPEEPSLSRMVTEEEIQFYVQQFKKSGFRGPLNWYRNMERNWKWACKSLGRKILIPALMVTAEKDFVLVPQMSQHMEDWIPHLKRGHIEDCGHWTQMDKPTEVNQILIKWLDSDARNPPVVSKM
Experiment: Human sEH inhibition, fluorescent assay (MNPC substrate)
Assay type: biochemical
Settings: not given
Description: The inhibition potency of the compounds against the recombinant purified human and mouse sEH and human mEH were measured using sensitive fluorescent assays. The enzymes were diluted to the proper buffer and aliquoted in black 96-well plates. The enzymes were incubated with the inhibitors (0.4 < [I] < 50,000 nM) for 5 min at 37 °C before the introduction of the reporting substrate. For the sEH, nonfluorescent cyano(6-methoxy-naphthalen-2-yl)methyl trans-[(3-phenyloxiran-2-yl)methyl] carbonate MNPC was used as the reporting substrate at a final concentration of 5 μM [51]. For the mEH, cyano(6-methoxy-naphthalen-2-yl)methyl glycidyl carbonate (MNGC) was used at a final concentration of 5 µM. The formation of the product (6-methoxynaphthaldehyde) was measured ([…]) every 30 s for 10 min by a Molecular Device M-2 plate reader. All measurements were performed in triplicate. The inhibitory potency (IC50) was calculated by regression of at least four data points on both sides of the 50% mark.

SMILES	sEH inhibition (in words)
CCCCCCCCCCCNC(=O)C(=O)NCCCCCC(=O)O [8b, 6-(2-Oxo-2-(undecylamino)acetamido)hexanoic Acid]	insignificant inhibitor of sEH

Same assay, conditions: recombinant purified human sEH, 5 min preincubation at 37 °C, MNPC 5 µM; read-out: HsEH IC50

SMILES	IC50 [µM]
CCCCCCCCCCNC(=O)NCCCCOCC(=O)O [7a, 2-(4-(3-Decylureido)butoxy)acetic Acid]	0.83
CCCCCCCCCCCNC(=O)NCCCCOCC(=O)O [7b, 2-(4-(3-Undecylureido)butoxy)acetic Acid]	1.8
CCCCCCCCCCNC(=O)NC/C=C\COCC(=O)O [7c, (Z)-2-((4-(3-Decylureido)but-2-en-1-yl)oxy)acetic Acid]	2.1
CCCCCCCC/C=C\CNC(=O)NCCCCOCC(=O)O [7e, (Z)-2-(4-(3-(undec-2-en-1-yl)ureido)butoxy)acetic Acid]	1.6
CCCCCCCC/C=C\CNC(=O)NC/C=C\COCC(=O)O [7f, 2-(((Z)-4-(3-((Z)-undec-2-en-1-yl)ureido)but-2-en-1-yl)oxy)acetic Acid]	2.6
CCCCCCCCCCNC(=O)C(=O)NCCCCCC(=O)O [8a, 6-(2-(Decylamino)-2-oxoacetamido)hexanoic Acid]	51
CCCCCCCCCCCNC(=O)C(=O)NCCCCCC(=O)O [8b, 6-(2-Oxo-2-(undecylamino)acetamido)hexanoic Acid]	> 100
CCCCCCCCCNC(=O)C(=O)NCCCCCCC(=O)O [8c, 7-(2-(Nonylamino)-2-oxoacetamido)heptanoic Acid]	64
CCCCCCCCCCNC(=O)C(=O)NCCCCCCC(=O)O [8d, 7-(2-(Decylamino)-2-oxoacetamido)heptanoic Acid]	49
CCCCCCCC/C=C\CNC(=O)C(=O)NCCCCCC(=O)O [8e, (Z)-6-(2-Oxo-2-(undec-2-en-1-ylamino)acetamido)hexanoic Acid]	19
CCCCCCCCCCCC(=O)NCCCCCC(=O)O [9a, 6-Dodecanamidohexanoic Acid]	9.6
CCCCCCCCCCCCC(=O)NCCCCCC(=O)O [9b, 6-Tridecanamidohexanoic Acid]	6.4
CCCCCCCCCCCC(=O)NCCCCCCC(=O)O [9c, 7-Dodecanamidoheptanoic Acid]	2.3
CCCCCCCCCCCCC(=O)NCCCCCCC(=O)O [9d, 7-Tridecanamidoheptanoic Acid]	2.4
CCCCCCCCCCCNC(=O)CCCCCCC(=O)O [10a, 8-Oxo-8-(undecylamino)octanoic Acid]	3.5
CCCCCCCCCCCCNC(=O)CCCCCCC(=O)O [10b, 8-(Dodecylamino)-8-oxooctanoic Acid]	2.7
CCCCCCCCCCCNC(=O)CCCCCCCC(=O)O [10c, 9-Oxo-9-(undecylamino)nonanoic Acid]	0.9
CCCCCCCC/C=C\CNC(=O)CCCCCCCC(=O)O [10d, (Z)-9-Oxo-9-(undec-2-en-1-ylamino)nonanoic Acid]	0.82

Target: T1, human soluble epoxide hydrolase (sEH)
Experiment: not given
Settings: cited from earlier work

SMILES	sEH inhibition (in words)
CNC(=O)c1cc(Oc2ccc(NC(=O)Nc3ccc(Cl)c(C(F)(F)F)c3)cc2)ccn1 [Sorafenib]	potent sEH inhibitor

Tested on: human renal mesangial cells (HRMCs)
Experiment: WST-8 cell viability assay, protection against sorafenib-induced cell death
Assay type: cell-based
Settings: sorafenib 10 µM alone, 48 h
Description: Human renal mesangial cells (4200, ScienCell, Carlsbad, CA, USA) were cultured at 37 °C (in 5% CO2) in RPMI 1640 medium (Gibco™, LS11875093) containing 10% FBS, 100 U/mL of penicillin, and 0.1 mg/mL of streptomycin. The cells were subculture following the protocol of the manufacturer.
WST assay: To evaluate the effect of 8,9-EET analogs and sorafenib on the viability of human renal mesangial cells, a 96-well TPP plate is seeded with cells, which are then allowed to adhere. Over the course of 24 h, they undergo serum starvation before being subject to one of five treatments: Control (no treatment), Sorafenib (10 µM), Sorafenib plus 8,9-EET analogs (1 µM, 3 µM or 10 µM). After 48 h incubation, a WST assay used to gain information on cell survival; we added 10 μL WST reagent per well and incubated for 2 h. WST-8 tetrazolium salt is reduced by cellular dehydrogenases to an orange formazan product that is soluble in tissue culture medium. The amount of formazan produced is directly proportional to the number of living cells and is measured by absorbance at 460 nm. The absorbance at 460 nm is determined using a Synergy 4 Microplate Reader.

SMILES	cells dying on sorafenib exposure
CNC(=O)c1cc(Oc2ccc(NC(=O)Nc3ccc(Cl)c(C(F)(F)F)c3)cc2)ccn1 [Sorafenib]	around 90%
